For this series, the system named is C. elegans wild type strain N2. Kind of series: C. elegans behavioral toxicity (thrashing/swimming) assay after 24 hours exposure to nicotine or tobacco extract with or without probiotic bacteria. The note with it: control worms with no bacteria, FIG. 1.

Protocol: Experiments were carried out with the wild type strain N2 of C. elegans. Worms were synchronized by isolating eggs from gravid adults, collecting the eggs in M9 buffer, hatching the eggs overnight in NGM plates and sterilely isolating L1-stage worms with M9 buffer. The L1-stage worms were transferred to NGM (Nematode Growth Medium) plates inoculated with Escherichia coli strain OP50 and incubated for four days at 15° C. to reach adulthood.
Similarly, a natural tobacco extract (ABT #6079, Advanced Biotech) was diluted in M9 buffer to a final concentration of 6.2 mM.
Adult worms were washed in M9 buffer and 250 μl of worm suspension was transferred to 24-well culture plates with or without nicotine (250 μl if present) or tobacco extract (250 μl if present) and with or without probiotic suspension (500 μl if present). The probiotic suspension was added first to the wells followed by the nicotine or the tobacco extract. At least 40 worms were present per well. The plates were incubated at 20° C. for 24 hours. After incubation period, worm suspension in each well was washed three times in M9 buffer (centrifugation of four minutes at 1000 rpm). The worms were transferred in new 24-well culture plates containing 1 ml of agar 1% in each well. The worms were allowed to equilibrate for 45 minutes, and then the thrashing (swimming) was recorded using a Leica EC3 camera. […]

As for `CN1CCCC1c1cccnc1.O.O.O=C(O)C(O)C(O)C(=O)O.O=C(O)C(O)C(O)C(=O)O` (stereo not shown) [nicotine, Nicotine ditartrate dihydrate], the “behavioral toxicity of the challenge agent to worms without bacteria” value was “induced a reversible paralysis”.

The record behind these values is patent US20210069269A1, “METHOD FOR ALLEVIATING TOBACCO OR NICOTINE WITHDRAWAL SYMPTOMS” (DANSTAR FERMENT AG, priority 2018, published 2021).
